The values below come from patent publication US20240245660A1, “METHODS OF TREATING GASTROINTESTINAL STROMAL TUMORS” (Deciphera Pharmaceuticals, LLC, priority 2022, published 2024).

Test [1] concerns advanced gastrointestinal stromal tumor (GIST). Description: Multicenter, global, randomized, open-label, phase 3 study of ripretinib versus sunitinib with baseline ctDNA analysis (Examples 1 and 5). In kind it is in vivo, human. The following applies: for forest plot of PFS by KIT exon 11 mutational subgroups from baseline ctDNA: FIG. 10; for forest plot of OS by KIT exon 11 mutational subgroups from baseline ctDNA / forest plot of OS by KIT mutational status from baseline ctDNA: Interim Analysis 2; for forest plot of OS by KIT exon 11 mutational subgroups from baseline ctDNA: FIG. 14; for forest plot of ORR by KIT exon 11 mutational subgroups from baseline ctDNA: FIG. 12; for forest plot of OS by KIT mutational status from baseline ctDNA: FIG. 13; for median PFS by IRR: KIT mutations at exon 17/18, excluding KIT exons 9, 13, and/or 14, FIG. 4; for forest plot of PFS by KIT mutational status from baseline ctDNA: FIG. 9; for Median Progression-Free Survival (mPFS): patients with mutations in KIT exon 11 and 17 or 18 only (ctDNA; excluding exons 9, 13, 14), by IRR, ripretinib 150 mg QD or sunitinib 50 mg QD; for forest plot of ORR by KIT mutational status from baseline ctDNA: FIG. 11; for OS HR, ripretinib versus sunitinib (Cox model) / PFS HR, ripretinib versus sunitinib (Cox model): sex, and race. As to the method: This study is a multicenter, global, randomized, open-label, phase 3 study which enrolled adult patients with advanced gastrointestinal stromal tumor (GIST) who progressed on or had intolerance to imatinib. Randomization was 1:1 to ripretinib 150 mg once daily (QD) or sunitinib 50 mg once daily (QD) (4 weeks on/2 weeks off). Baseline peripheral whole blood was analyzed by Guardant360, a 74-gene circulating tumor DNA (ctDNA) next-generation sequencing (NGS)-based assay.
Of the 453 patients in the overall intent-to-treat population (ITT), baseline ctDNA analysis was performed in 362 patients for whom evaluable samples were available. ctDNA was detected in 280 samples and KIT mutations were detected in 213 patients. Primary mutations in KIT were detected in exon 11 in 157 patients and in exon 9 in 36 patients. Common resistance mutations in KIT were in exons 17/18 in 89 patients and exons 13/14 in 81 patients. In patients with a KIT exon 11 primary mutation, 52 patients had mutations in exon 17 or 18 only, 41 had mutations in exon 13 or 14 only, and 22 patients had mutations in both exon 13 or 14 and exon 17 or 18. […] Efficacy in patients with detectable ctDNA in KIT exon 11 and the ITT populations was consistent with the primary analysis based on tumor data used for randomization. The subgroup safety profiles were consistent with the primary analysis.
Cox proportional hazards analyses of PFS and OS were conducted to examine the interaction of treatment arm and mutational subgroup with or without adjustment for baseline characteristics in the study of Example 1.
With respect to PFS, a Cox model with the interaction effect was used and the Bonferroni adjustment was applied. […] The treatment effect was nominally significant in the KIT exon 11+13/14 and KIT exon 11+17/18 populations before and after performing the Bonferroni correction. […] The results were robust when accounting for multiple treatment comparisons across mutational subgroups.
With respect to OS, a Cox model with the interaction effect was used and the Bonferroni adjustment was applied. […] The treatment effect was nominally significant in the KIT exon 11+17/18 population before and after performing the Bonferroni correction, but not in the KIT exon 11+13/14 population. […] The results were robust when accounting for multiple treatment comparisons across mutational subgroups.

In test [2] the test system is gastrointestinal stromal tumors (GIST). Description: Bridging study of second-line ripretinib versus sunitinib in GIST patients in China (Example 3). The following applies: patients in China with KIT exon 11 and exon 17/18 mutations per tumor tissue ITT population; ripretinib 150 mg once daily or sunitinib 50 mg once daily; FIG. 16. It counts as in vivo, human. The protocol:
Results from a bridging study, with respect to the study of Example 1 above, of second-line administration of 150 mg once daily ripretinib, as compared to administration of 50 mg once daily sunitinib, in gastrointestinal stromal tumors (GIST) patients in China were obtained. In the study, 21 patients were determined to have mutations at KIT exon 11 and exon 17/18 per the tumor tissue ITT population. Progression-free survival (PFS) was determined with independent radiologic review using mRECIST. A Kaplan-Meier plot of PFS is provided as FIG. 16.

Test [3] has as its system GISTs with KIT exon 11 primary mutations. Particulars: cited from earlier work.
[4] abbreviates: KIT exon 11 and 17 or 18 only (ctDNA), Data cut 1.
Where [5] appears, read: KIT exon 11 and 17 or 18 only (ctDNA), Data cut 2.
The mark [6] stands for this setting: KIT exon 11 and exon 17/18, excluding exons 9, 13, and/or 14, extended interim analysis (Interim Analysis 2), FIG. 6.
[7] abbreviates: KIT exon 11 and exon 17/18, excluding exons 9, 13, and/or 14, interim analysis (Interim Analysis 1), FIG. 5.
The mark [8] stands for this setting: KIT exon 17/18, excluding exons 9, 13, and/or 14, extended interim analysis (Interim Analysis 2), FIG. 8.
[9] abbreviates: KIT exon 17/18, excluding exons 9, 13, and/or 14, interim analysis (Interim Analysis 1), FIG. 7.
The mark [10] stands for this setting: with adjustment for age, Any KIT exon 9 (n = 36).
Where [11] appears, read: with adjustment for age, KIT exon 11 + 13/14 + 17/18 only (n = 22).
The mark [12] stands for this setting: with adjustment for age, KIT exon 11 + 13/14 only (n = 41).
[13] abbreviates: with adjustment for age, KIT exon 11 + 17/18 only (n = 52).
Where [14] appears, read: with adjustment for age, KIT exon 11 only (n = 41).
Where [15] appears, read: with adjustment for age, Other KIT/PDGFRA (n = 29).
Where [16] appears, read: without adjustment for age, Any KIT exon 9 (n = 36).
Where [17] appears, read: without adjustment for age, KIT exon 11 + 13/14 + 17/18 only (n = 22).
The mark [18] stands for this setting: without adjustment for age, KIT exon 11 + 13/14 only (n = 41).
The mark [19] stands for this setting: without adjustment for age, KIT exon 11 + 17/18 only (n = 52).
Where [20] appears, read: without adjustment for age, KIT exon 11 only (n = 41).
[21] abbreviates: without adjustment for age, Other KIT/PDGFRA (n = 29).

As for `CCn1c(=O)c(-c2cc(NC(=O)Nc3ccccc3)c(F)cc2Br)cc2cnc(NC)cc21` [ripretinib], in test [1] (KIT exon 11 and 17 only, exon 11 and 18 only, any exons 11 and 17, any exon 11 and exon 17 or 18), the “forest plot of PFS by KIT exon 11 mutational subgroups from baseline ctDNA” value is “favor ripretinib treatment”. Moreover, the ORR in test [1] (setting [4]) worked out at 44.4%; in test [1] (KIT exon 11 and 17 or 18 only (ctDNA), Data cut 1, listed as Ripretinib), 44.4%. Besides, the “ORR Response Difference (95% CI), ripretinib versus sunitinib” value in test [1] (setting [4]) is listed as 44.4% (23.0%, 62.7%). Besides, the “PFS Hazard Ratio (95% CI), ripretinib versus sunitinib” value in test [1] (setting [4]) is 0.22 (0.11, 0.44). Further, the OS entry in test [1] (setting [5]) is “Not Estimable”. For the same compound, the “OS Hazard Ratio (95% CI), ripretinib versus sunitinib” value in test [1] (setting [5]) is recorded as 0.34 (0.15, 0.76). Besides, in test [1] (KIT exon 11 and 17 or KIT exon 11 and 18 mutations), the “forest plot of OS by KIT exon 11 mutational subgroups from baseline ctDNA” value was “favors ripretinib treatment”. Moreover, the “median OS” value in test [1] (setting [6]) is listed as “not estimable”; in test [1] (setting [7]) it was “not estimable”; in test [1] (setting [8]) it was “not evaluable”; in test [1] (setting [9]), “not evaluable”. The “forest plot of ORR by KIT exon 11 mutational subgroups from baseline ctDNA” value in test [1] (KIT exon 11 in combination with KIT exon 17 or 18 mutations) is “favors ripretinib treatment”. The “PFS, ORR and OS versus sunitinib” value in test [1] (KIT exon 11 only primary mutation and exon 17 or 18 secondary mutations only) was “superior”. In test [1] (KIT exon 17 and 18 mutations), the “forest plot of OS by KIT mutational status from baseline ctDNA” value is given as “favors ripretinib treatment”. Also, the “median PFS by IRR” value in test [1] was found to be 13.8 months. Moreover, the “forest plot of PFS by KIT mutational status from baseline ctDNA” value in test [1] (mutations in KIT exons 17 and 18) is listed as “favor ripretinib treatment”. For the same compound, the “Median Progression-Free Survival (mPFS)” value in test [1] (Data cut 1) is reported as 14.2 months. The “forest plot of ORR by KIT mutational status from baseline ctDNA” value in test [1] (populations with KIT exons 11, 17 or 18) is given as “favors ripretinib treatment”. Further, the “OS HR, ripretinib versus sunitinib (Cox model)” value was found to be 1.33 in test [1] (setting [10]); 2.09 in test [1] (setting [11]); 1.91 in test [1] (setting [12]); 0.34 in test [1] (setting [13]); 1.55 in test [1] (setting [14]); 0.63 in test [1] (setting [15]). For the same compound, the “OS HR, ripretinib versus sunitinib (Cox model)” value in test [1] (setting [16]) is reported as 1.32; in test [1] (setting [17]) it was 2.15; in test [1] (setting [18]) it was 1.88; in test [1] (setting [19]), 0.32; in test [1] (setting [20]), 1.64; in test [1] (setting [21]) it was 0.78. In addition, the “PFS HR, ripretinib versus sunitinib (Cox model)” value in test [1] (setting [10]) was 3.07; in test [1] (setting [11]) it was 0.96; in test [1] (setting [12]), 3.27; in test [1] (setting [13]) it was 0.21; in test [1] (setting [14]), 2.54; in test [1] (setting [15]), 0.97. Besides, the “PFS HR, ripretinib versus sunitinib (Cox model)” value is 2.88 in test [1] (setting [16]); 0.98 in test [1] (setting [17]); 3.41 in test [1] (setting [18]); 0.22 in test [1] (setting [19]); 2.53 in test [1] (setting [20]); 1.02 in test [1] (setting [21]). The “median PFS (independent radiologic review using mRECIST)” value in test [2] is “not reached”.

For `Cc1ccc(NC(=O)c2ccc(CN3CCN(C)CC3)cc2)cc1Nc1nccc(-c2cccnc2)n1` [imatinib], the 2-year relapse-free survival in test [3] (adjuvant setting) is given as around 90%. The median event-free survival entry in test [3] (metastatic setting) is on record as “under 2 years”.

Turning to `CCN(CC)CCNC(=O)c1c(C)[nH]c(/C=C2\C(=O)Nc3ccc(F)cc32)c1C` [sunitinib, reference compound], in test [1] (KIT exon 9 mutations), the “forest plot of ORR by KIT mutational status from baseline ctDNA” value is listed as “favors sunitinib treatment”. Besides, in test [1] (KIT exon 11 and 13 or KIT exon 11 and 14 mutations), the “forest plot of OS by KIT exon 11 mutational subgroups from baseline ctDNA” value is “favors sunitinib treatment”. For the same compound, the ORR in test [1] (setting [4]) turned out to be 0%; in test [1] (KIT exon 11 and 17 or 18 only (ctDNA), Data cut 1, listed as Sunitinib), 0%. In test [1] (setting [5]), this compound registered an OS of 17.5 months. For the same compound, the “median OS” value was determined as 17.5 months in test [1] (setting [6]), 16.9 months in test [1] (setting [7]), 17.5 months in test [1] (setting [8]) and 17.0 months in test [1] (setting [9]). Also, the “forest plot of ORR by KIT exon 11 mutational subgroups from baseline ctDNA” value in test [1] (KIT exon 11 in combination with KIT exon 13 only) is “favors sunitinib treatment”. Besides, the “forest plot of OS by KIT mutational status from baseline ctDNA” value in test [1] (KIT exon 13 and 14 mutations) is listed as “favors sunitinib treatment”. Besides, the “median PFS by IRR” value in test [1] was determined as 2.8 months. The “forest plot of PFS by KIT exon 11 mutational subgroups from baseline ctDNA” value in test [1] (exon 11 mutations in combination with exon 13 or exon 14 mutations) was “favor sunitinib”. Moreover, in test [1] (mutations in KIT exons 9, 13, and 14), the “forest plot of PFS by KIT mutational status from baseline ctDNA” value was “favor sunitinib”. The “Median Progression-Free Survival (mPFS)” value in test [1] (Data cut 1) came to 1.5 months. In test [2], the “median PFS (independent radiologic review using mRECIST)” value is 6.7 months.
